Measured values: patent publication US11612601B1, “Targeting epidermal growth factor to treat vascular calcification” (THE FLORIDA INTERNATIONAL UNIVERSITY BOARD OF TRUSTEES, priority 2022, dated 2023)

Key:
[1] = tested on: CKD mice; assay: Kidney renal fibrosis marker qRT-PCR and H&E histology in CKD mice; assay type: in vivo, mouse
Experimental: To assess histological changes in kidneys due to renal injury, Hematoxylin and Eosin (H&E) staining was performed. The kidneys resected from the mice were fixed using formalin (10%) for three hours. Tissues were embedded using Tissue-Plus OCT (Fisher Scientific, 23-730-571). The samples were cryosectioned with a thickness of 12 μm and stained using rapid chrome H&E staining kit (Thermo Scientific, 9990001).
To isolate RNA from the resected kidneys, the tissues were homogenized using a grinder (Sigma, Z529672) and lysed in 1 mL TRIzol solution. After 10 min incubation at room temperature, the samples were centrifuged at 12,000×g for 10 min at 4° C. The supernatants were collected and 200 μL of chloroform (Sigma Aldrich, C2432) were added to each sample. The samples were vortexed, incubated at room temperature for 10 min, and centrifuged for 15 min at 12,000×g, 4° C. The aqueous phase was collected from each sample and 500 μL of isopropanol was added; the samples were vortexed, incubated for 15 min at room temperature following by 15 min on ice, and centrifuged at 21,000×g for 15 min. The supernatants were discarded, and pellets were washed twice with 500 μL cold ethanol (75% v/v) and centrifuged at 21,000×g for 5 min. The isolated RNA templates were heated at 65° for 15 min, and the concentrations were measured using a spectrophotometer (NanoDrop Lite, Thermo scientific). Power SYBR Green RNA-to-CT 1-Step Kit with 100 ng isolated template RNA per reaction was used.
The following mouse primer sequences were purchased from Eurofins Scientific; Gapdh Forward: AACGACCCCTTCATTGAC (SEQ ID NO: 9) and Reverse: TCCACGACATACTCAGCAC (SEQ ID NO: 10); Colla1 Forward: […] (SEQ ID NO: 11) and Reverse: […] (SEQ ID NO: 12); Tgfb1 Forward: […] (SEQ ID NO: 13) and Reverse: CAGCAGCCGGTTACCAAG (SEQ ID NO: 14).

[2] = tested on: Primary human coronary artery vascular smooth muscle cells; assay: VSMC osteogenic marker gene expression (qRT-PCR); assay type: cell-based; conditions: OS + 2.5 μM vs OS, 14 days
Experimental: Primary human coronary artery vascular smooth muscle cells, (VSMCs, ATCC, PCS-100-021) were cultured using vascular smooth muscle cell media and growth kit (ATCC, PCS-100-042). VSMCs (passage 4-6) were harvested using 0.05% trypsin-EDTA solution (Caisson Labs, TRL04) and seeded with a density of 26,320 cells.cm^-2 and incubated for 72 hours at 37° C., 5% CO2 with controlled humidity prior to treatment. […] OS media were supplemented with 10 mM β-glycerophosphate (Sigma, 13408-09-8), 0.1 mM L-ascorbic acid (Sigma, 113170-55-1), and 10 nM dexamethasone (Sigma, 50-02-2). To assess the role of EGFR inhibition, tyrphostin AG1478 (Millipore Sigma, T4182) was dissolved in vehicle (DMSO:Methanol, 1:1) and added to OS media to a final concentration of 2.5 μM. An equal volume of vehicle was added to the control and OS groups. […] On days 6, 13, 20, and 27 the media were replaced by an extracellular-vesicle-free (EV-free) media (ultracentrifuged for 15 hours at 100,000×g at 4° C. to remove background EVs common in the serum). After 24 hours, conditioned media were collected on days 7, 14, 21, and 28. […] To perform the quantitative real time polymerase chain reaction (qRT-PCR), Power SYBR Green RNA-to-CT 1-Step Kit (Applied Biosystems, 4391178) was used. […] The relative gene expression levels were calculated using comparative CT method, considering control groups as the reference. […]

For `COc1cc2ncnc(Nc3cccc(Cl)c3)c2cc1OC` [AG1478, tyrphostin AG1478], the “expression of common markers of renal injury” value ([1]; CKD mice) was “does not reduce”, the “Gene expression of renal fibrosis marker Colla1” value ([1]; kidney, CKD mice treated vs CKD, p=0.6) was “no significant differences” and the “Gene expression of renal fibrosis marker Tgfb1” value ([1]; kidney, CKD mice treated vs CKD, p=0.7) was “no significant differences”. For the same compound, the “Gene expression of osteogenic marker ALPL in VSMCs” value ([2]; p=0.1) was “no significant differences” and the “Gene expression of osteogenic marker RUNX2 in VSMCs” value ([2]; p=0.42) was “no significant differences”.
